From patent US20240122930A1, “INTEGRIN INHIBITORS AND USES THEREOF IN COMBINATION WITH OTHER AGENTS” (Pliant Therapeutics, Inc., priority 2022, published 2024)
Read-outs that look alike come from different tables or passages of the source.

Test system: participants with idiopathic pulmonary fibrosis (IPF)
[1] = 320 mg (n = 22), treatment up to 40 weeks
[2] = All 40-160 mg (n = 67), 12 weeks
[3] = All 40-320 mg (n = 88), 12 weeks
[4] = pooled 40-160 mg, With Background SoC (n = 55), 12 weeks
[5] = pooled 40-160 mg, With Background SoC nintedanib or pirfenidone (n = 55), 12 weeks
[6] = pooled 40-160 mg, Without Background SoC (n = 12), 12 weeks
[7] = single participant, 320 mg, after week 12, not drug related, resolved
[8] = single participant, 320 mg, after week 12, not drug related, resolved with sequalae

Description: The groups were stratified for the use of nintedanib or pirfenidone. The groups were screened 28 days before the Day 1 of the study. At Day 1, baseline values were collected. During week 12, the subjects received the last dose, and the study was ended at week 14. Primary and secondary endpoints of the study included safety, tolerability, and PK. Exploratory endpoints included change in FVC over 12 weeks; High Resolution CT-based Quantitative Lung Fibrosis (QLF) imaging; patient-reported outcome (PRO): VAS-cough severity; and effect on selected biomarkers.
The groups were stratified for the use of nintedanib or pirfenidone. The screening was done 28 days before Day 1 and the baseline was measured on Day 1. The last dose was on Week 12, and the end of study was on Week 14. The primary and secondary endpoints include safety, tolerability, and PK. Exploratory Endpoints include change in Forced Vital Capacity (FVC) over 12 weeks, High Resolution CT-based Quantitative Lung Fibrosis (QLF) imaging, and effect on selected biomarkers.
The groups were stratified for the use of nintedanib or pirfenidone. The groups were screened 28 days before the Day 1 of the study. At Day 1, baseline values were collected. The study was continued up to Week 48. The treatment duration per protocol is at least 24 weeks and at most 48 weeks. For the study, the primary and secondary endpoints evaluated in the trial were safety, tolerability, and pharmacokinetics. The exploratory endpoints evaluated included the change in FVC over 12 and 24 weeks; high Resolution CT-based Quantitative Lung Fibrosis (QLF) imaging; patient-reported cough severity; and effect on selected biomarkers.

SMILES: COCCN(CCCCc1ccc2c(n1)NCCC2)CC[C@H](Nc1ncnc2ccccc12)C(=O)O [Compound 5, (S)-4-((2-methoxyethyl) (4-(5,6,7,8-tetrahydro-1,8-naphthyridin-2-yl)butyl)amino)-2-(quinazolin-4-ylamino) butanoic acid]
- TEAE Dyspnoea, participants reporting [1]: 5 n
- TEAE Idiopathic Pulmonary Fibrosis related to study drug [1]: 0 n
- TEAE Idiopathic Pulmonary Fibrosis, % of participants [1]: (18.2) %
- TEAE Idiopathic Pulmonary Fibrosis, participants reporting [1]: 4 n
- TEAE Leading to Death [1]: 1 n
- TEAE Leading to Death, % of participants [1]: (4.5) ^3%
- TEAE Leading to Early Termination from Study [1]: 3 n
- TEAE Leading to Early Termination from Study, % of participants [1]: (13.6) ^2,3,4%
- TEAE Leading to Interruption of Study Drug [1]: 4 n
- TEAE Leading to Interruption of Study Drug, % of participants [1]: (18.2) ^2%
- TEAE Leading to Withdrawal of Study Drug [1]: 3 n
- TEAE Leading to Withdrawal of Study Drug, % of participants [1]: (13.6) ^2,3,4%
- TEAE Upper respiratory tract infection related to study drug [1]: 0 n
- TEAE Upper respiratory tract infection, % of participants [1]: (9.1) %
- TEAE Upper respiratory tract infection, participants reporting [1]: 2 n
- TEAE of CTCAE Grade 3 or Higher [1]: 5 n
- TEAE of CTCAE Grade 3 or Higher related to study drug, % of participants [1]: (4.5) ^1%
- TEAE of CTCAE Grade 3 or Higher, % of participants [1]: (22.7) %
- TEAE related to study drug [1]: 5 n
- TEAE related to study drug, % of participants [1]: (22.7) %
- TEAE, % of participants [1]: (90.9) %
- TEAE, participants reporting [1]: 20 n
- TEAE of CTCAE Grade 3 or Higher related to study drug (320 mg (n = 22), treatment up to 40 weeks, blood pressure increased): 1 n
- Safety and tolerability (320 mg, long-term treatment up to 40 weeks): well tolerated
- Any AEs, % of participants [2]: (68.7) %
- Any AEs, participants reporting [2]: 46 n
- Serious TEAE [2]: 3 n
- Serious TEAE related to study drug [2]: 0 n
- Serious TEAE, % of participants [2]: (4.5) %
- TEAE Diarrhea (any causality), % of participants [2]: (17.9) %
- TEAE Diarrhea (any causality), participants reporting [2]: 12 n
- TEAE Diarrhea related to study drug, % of participants [2]: (11.9) %
- TEAE Diarrhea related to study drug, participants reporting [2]: 8 n
- TEAE Leading to Death [2]: 0 n
- TEAE Leading to Early Termination from Study [2]: 0 n
- TEAE Leading to Interruption of Study Drug [2]: 1 n
- TEAE Leading to Interruption of Study Drug, % of participants [2]: (1.5) %
- TEAE Leading to Withdrawal of Study Drug [2]: 0 n
- TEAE of CTCAE Grade 3 or Higher [2]: 4 n
- TEAE of CTCAE Grade 3 or Higher related to study drug [2]: 1 n
- TEAE of CTCAE Grade 3 or Higher related to study drug, % of participants [2]: (1.5) %
- TEAE of CTCAE Grade 3 or Higher, % of participants [2]: (6.0) %
- TEAE related to study drug [2]: 15 n
- TEAE related to study drug, % of participants [2]: (22.4) %
- TEAE, % of participants [2]: (67.2) %
- TEAE, participants reporting [2]: 45 n
- Any AEs, % of participants [3]: 72.7%
- Any AEs, participants reporting [3]: 64 n
- Serious TEAE [3]: 4 n
- Serious TEAE related to study drug [3]: 0 n
- Serious TEAE, % of participants [3]: 4.5%
- TEAE Diarrhea (any causality), % of participants [3]: 17.0%
- TEAE Diarrhea (any causality), participants reporting [3]: 15 n
- TEAE Diarrhea related to study drug, % of participants [3]: 11.4%
- TEAE Diarrhea related to study drug, participants reporting [3]: 10 n
- TEAE Leading to Death [3]: 1 n
- TEAE Leading to Death, % of participants [3]: 1.1%
- TEAE Leading to Early Termination from Study [3]: 3 n
- TEAE Leading to Early Termination from Study, % of participants [3]: 3.4%
- TEAE Leading to Interruption of Study Drug [3]: 2 n
- TEAE Leading to Interruption of Study Drug, % of participants [3]: 2.3%
- TEAE Leading to Withdrawal of Study Drug [3]: 3 n
- TEAE Leading to Withdrawal of Study Drug, % of participants [3]: 3.4%
- TEAE of CTCAE Grade 3 or Higher [3]: 6 n
- TEAE of CTCAE Grade 3 or Higher related to study drug [3]: 1 n
- TEAE of CTCAE Grade 3 or Higher related to study drug, % of participants [3]: 1.1%
- TEAE of CTCAE Grade 3 or Higher, % of participants [3]: 6.8%
- TEAE related to study drug [3]: 19 n
- TEAE related to study drug, % of participants [3]: 21.6%
- TEAE, % of participants [3]: 70.5%
- TEAE, participants reporting [3]: 62 n
- SAE Acute respiratory failure: Standard Toxicity Grade (one participant, 40 mg, not treatment related, dose not changed, recovered/resolved): Grade 3
- SAE Idiopathic pulmonary fibrosis (acute exacerbation): Standard Toxicity Grade (one participant, 160 mg, not treatment related, about 2 weeks after 12-week treatment, not recovered/not resolved): Grade 3
- SAE Atrial flutter: Standard Toxicity Grade (one participant, 160 mg, not treatment related, underlying disease, recovered/resolved): Grade 3
- SAE Acute respiratory failure: Standard Toxicity Grade (one participant, 320 mg, GAP Stage III, after elective atrioventricular node ablation, not treatment related, drug withdrawn, fatal): Grade 5
- AE leading to withdrawal, Diarrhea: Standard Toxicity Grade (one participant, 320 mg, receiving nintedanib, recovered/resolved): Grade 1
- Any AEs, % of participants [4]: (69.1) %
- Serious TEAE, % of participants [4]: (5.5) %
- TEAE of CTCAE Grade 3 or Higher related to study drug, % of participants [4]: (1.8) %
- TEAE of CTCAE Grade 3 or Higher, % of participants [4]: (7.3) %
- TEAE related to study drug, % of participants [4]: (23.6) %
- TEAE, % of participants [4]: (67.3) %
- Any AEs, participants reporting [5]: 38 n
- Serious TEAE [5]: 3 n
- Serious TEAE related to study drug [5]: 0 n
- TEAE Leading to Death [5]: 0 n
- TEAE Leading to Early Termination from Study [5]: 0 n
- TEAE Leading to Interruption of Study Drug [5]: 0 n
- TEAE Leading to Withdrawal of Study Drug [5]: 0 n
- TEAE of CTCAE Grade 3 or Higher [5]: 4 n
- TEAE of CTCAE Grade 3 or Higher related to study drug [5]: 1 n
- TEAE related to study drug [5]: 13 n
- TEAE, participants reporting [5]: 37 n
- Any AEs, % of participants [6]: (66.7) %
- Any AEs, participants reporting [6]: 8 n
- Serious TEAE [6]: 0 n
- Serious TEAE related to study drug [6]: 0 n
- TEAE Leading to Death [6]: 0 n
- TEAE Leading to Early Termination from Study [6]: 0 n
- TEAE Leading to Interruption of Study Drug [6]: 1 n
- TEAE Leading to Interruption of Study Drug, % of participants [6]: (8.3) %
- TEAE Leading to Withdrawal of Study Drug [6]: 0 n
- TEAE of CTCAE Grade 3 or Higher [6]: 0 n
- TEAE of CTCAE Grade 3 or Higher related to study drug [6]: 0 n
- TEAE related to study drug [6]: 2 n
- TEAE related to study drug, % of participants [6]: (16.7) %
- TEAE, % of participants [6]: (66.7) %
- TEAE, participants reporting [6]: 8 n
- SAE Pneumonia: Standard Toxicity Grade (same participant, 40 mg, not treatment related, removed carpet from home without a mask, recovered/resolved): Grade 2
- SAE Iron Deficiency anemia: Standard Toxicity Grade (single participant, 320 mg, Week 29, not drug related, resolved with sequalae): Grade 3
- SAE Ileus: Standard Toxicity Grade (single participant, 320 mg, after week 12 (Week 21 hospitalization), not drug related, resolved): Grade 3
- SAE Acute Kidney Injury: Standard Toxicity Grade [7]: Grade 2
- SAE Gastritis: Standard Toxicity Grade [7]: Grade 2
- SAE Hyperlactatemia: Standard Toxicity Grade [7]: Grade 2
- SAE Acute Left Heart Failure: Standard Toxicity Grade [8]: Grade 3
- SAE Gastric Ulcer: Standard Toxicity Grade [8]: Grade 3
- SAE Haemorrhagic arteriovenous malformation: Standard Toxicity Grade [8]: Grade 3
